Laboratory results: US5684222A (priority 1994, dated 1997)

Test system: TNFRp55+/+ mice
Settings: mouse, in vivo

`N[C@H]1C(O)O[C@H](CO)[C@H](O)[C@@H]1O` (stereo partly drawn) [D-Gal, D-galactosamine] was tested, and the “TNFRp55 +/+ dead/group” value was 0/4.
